Reference: BindingDB's records for doi:10.1074/jbc.M110.109017 (The University of Kansas, 2010)

Target: Cytochrome P450 2E1 (Homo sapiens, UniProt P05181)
Assay: Binding Assay
Text: Binding assay using CYP2E1.

Chain of Cytochrome P450 2E1 (P05181 whole entry): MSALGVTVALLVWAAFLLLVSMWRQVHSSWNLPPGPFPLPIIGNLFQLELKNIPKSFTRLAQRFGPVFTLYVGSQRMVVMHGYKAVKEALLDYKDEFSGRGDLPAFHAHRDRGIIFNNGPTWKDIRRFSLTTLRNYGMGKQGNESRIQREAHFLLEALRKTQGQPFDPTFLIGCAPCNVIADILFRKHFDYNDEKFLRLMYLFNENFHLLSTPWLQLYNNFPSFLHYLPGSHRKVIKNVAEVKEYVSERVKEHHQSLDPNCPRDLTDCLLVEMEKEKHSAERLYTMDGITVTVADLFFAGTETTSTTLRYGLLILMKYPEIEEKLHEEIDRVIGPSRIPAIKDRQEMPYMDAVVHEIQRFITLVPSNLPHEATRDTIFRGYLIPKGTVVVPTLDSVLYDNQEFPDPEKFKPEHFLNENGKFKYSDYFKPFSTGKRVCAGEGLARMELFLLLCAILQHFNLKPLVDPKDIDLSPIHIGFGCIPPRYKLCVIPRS

Row | Kd | SMILES
1 | 21 µM | O=C(O)CCCCCCCn1ccnc1
2 | 9 µM | O=C(O)CCCCCCCCCn1ccnc1 [Omega-imidazolyl decanoic acid]
3 | 1.8 µM | O=C(O)CCCCCCCCCCCn1ccnc1 [Omega-imidazolyl dodecanoic acid]
